Results reported in US8598357B2, “Benzodioxole piperidine compounds” (Hoffmann-La Roche Inc., priority 2011, dated 2013).
pKi: −log10 of the molar value. Where two headings read alike, the source gives them in different places.

Assays:
[1] = molecular target: D2 receptor (Homo sapiens (Human), UniProt P14416); assay: Radioligand binding assay ([3H]-spiperone) on membranes of HEK293 EBNA cells expressing human D2 receptor; conditions: human receptor in HEK293 EBNA cells; 0.7 nM [3H]-spiperone
[2] = molecular target: D3 receptor (Homo sapiens (Human), UniProt P35462); assay: Radioligand binding assay ([3H]-spiperone) on membranes of HEK293 EBNA cells expressing human D3 receptor; conditions: read-out: D3 Ki; human receptor in HEK293 EBNA cells; 0.5 nM [3H]-spiperone
[3] = molecular target: 5-HT2A receptor (Homo sapiens (Human), UniProt P28223); assay: Radioligand binding assay ([3H]-ketanserin) on membranes of HEK293 EBNA cells expressing human 5-HT2A receptor; conditions: read-out: 5HT2A Ki
Method: HEK293 EBNA cells were transiently transfected with expression plasmids encoding for the human D2 or D3 or for the human 5-HT2A receptor, respectively. The cells were harvested 48 h post-transfection, washed three times with cold PBS and stored at −80° C. prior to use. The pellet was suspended in cold 50 mM Tris-HCl buffer containing 10 mM EDTA (pH 7.4) and was homogenized with a Polytron (Kinematica AG, Basel, Switzerland) for 20-30 sec at 12.000 rpm. After centrifugation at 48.000×g for 30 min at 4° C., the pellet was resuspended in cold 10 mM Tris-HCl buffer containing 0.1 mM EDTA (pH 7.4), homogenized, and centrifuged as above. This pellet was further resuspended in a smaller volume of ice cold 10 mM Tris-HCl buffer containing 0.1 mM EDTA (pH 7.4) and homogenized with a Polytron for 20-30 sec at 12.000 rpm. The protein content of this homogenate was determined with the Bio-Rad (Bradford) Protein Assay (Biorad Laboratories GmbH, München, Germany) according to the instructions of the manufacturer using gamma globulin as the standard. This homogenate was stored at −80° C. in aliquots and thawed immediately prior to use.
Aliquots of membrane preparations were thawed at RT, resuspended in assay buffer (D2, D3: 50 mM Tris-HCl, 120 mM NaCl, 5 mM MgCl2, 1 mM EDTA, 5 mM KCl, 1.5 mM CaCl2, pH=7.4; 5-HT2A: 50 mM Tris-HCl, 10 mM MgCl2, 1 mM EGTA, pH=7.4), homogenized with a Polytron for 20-30 sec at 12.000 rpm and adjusted to a final concentration of approximately 7.5 μg protein/well (D2, D3) and 15 μg protein/well (5-HT2A), respectively.
The nonspecific binding was determined with equally composed reaction mixtures in the presence of 10 μM unlabelled spiperone. Per well 45 μl of Microscint 40 (Perkin Elmer, Schwerzenbach, Switzerland) was added, plates for sealed, shaken for 20 min and counted for 3 min on a Topcount Microplate Scintillation Counter (Can berra Packard SA, Ziirich, Switzerland) with quenching correction.
The CPM value for each duplicate of a concentration of competing compound was averaged (y1), then the % specific binding was calculated according to the equation (((y1−non-specific)/(total binding−non-specific))×100). Graphs were plotted with the % specific binding using XLfit, a curve fitting program that iteratively plots the data using Levenberg-Marquardt algorithm. The single site competition analysis equation used was y=A+((B−A)/(1+((x/C)D))), where y is the % specific binding, A is the minimum y, B is the maximum y, C is the IC50, x is the log 10 of the concentration of the competing compound and D is the slope of the curve (the Hill Coefficient). […] The affinity constant (K) was calculated using the Cheng-Prusoff equation Ki=(IC50/1+([L]/Kd), where [L] is the concentration of radioligand and Kd is the dissociation constant of the radioligand at the receptor as determined by the saturation isotherm.

[4] = human receptor in HEK293 EBNA cells, 1.1 nM [3H]-ketanserin

Sequence of D3 receptor (P35462 whole entry): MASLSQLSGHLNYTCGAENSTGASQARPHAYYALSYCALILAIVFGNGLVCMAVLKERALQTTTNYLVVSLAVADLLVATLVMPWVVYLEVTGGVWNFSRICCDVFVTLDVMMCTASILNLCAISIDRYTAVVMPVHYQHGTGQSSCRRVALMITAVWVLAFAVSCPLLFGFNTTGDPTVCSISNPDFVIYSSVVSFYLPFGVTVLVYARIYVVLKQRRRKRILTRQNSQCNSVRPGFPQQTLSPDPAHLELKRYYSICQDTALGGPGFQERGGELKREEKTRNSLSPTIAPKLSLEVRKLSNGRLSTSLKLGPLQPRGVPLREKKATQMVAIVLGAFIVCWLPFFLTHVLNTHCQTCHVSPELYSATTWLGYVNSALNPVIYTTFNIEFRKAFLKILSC
Sequence of D2 receptor (P14416 whole entry): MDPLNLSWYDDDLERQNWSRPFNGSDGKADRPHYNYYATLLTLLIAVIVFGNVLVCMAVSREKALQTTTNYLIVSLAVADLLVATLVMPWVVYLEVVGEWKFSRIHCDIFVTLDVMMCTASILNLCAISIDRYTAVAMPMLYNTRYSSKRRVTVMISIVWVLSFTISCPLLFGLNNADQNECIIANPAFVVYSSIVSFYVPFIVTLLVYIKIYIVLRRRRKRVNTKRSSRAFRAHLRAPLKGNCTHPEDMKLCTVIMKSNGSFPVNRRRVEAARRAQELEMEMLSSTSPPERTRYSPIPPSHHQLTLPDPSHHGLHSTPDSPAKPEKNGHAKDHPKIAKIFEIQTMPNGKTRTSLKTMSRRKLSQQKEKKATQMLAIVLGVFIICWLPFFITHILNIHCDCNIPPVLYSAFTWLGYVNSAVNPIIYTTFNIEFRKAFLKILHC

SMILES | pKi [1] | pKi [2] | pKi [3, 4] | pKi [3]
O=C(Nc1ccc(Cl)cc1)N[C@H]1CC[C@H](CCN2CCC(c3cccc4c3OCO4)CC2)CC1 [Example 77, N-trans-1-{4-[2-(4-Benzo[1,3]dioxol-4-yl-piperidin-1-yl)-ethyl]-cyclohexyl}-3-(4-chloro-phenyl)-urea] | 5.57 | 7.63 | 6.65 | –
O=S(=O)(N[C@H]1CC[C@H](CCN2CCC(c3cccc4c3OCO4)CC2)CC1)N1CCOCC1 [Example 79, Morpholine-4-sulfonic acid-Trans-N-{4-[2-(4-benzo[1,3]dioxol-4-yl-piperidin-1-yl)-ethyl]-cyclohexyl}-amide] | 6.64 | 8.21 | – | 7.25
CN(C)C(=O)N[C@H]1CC[C@H](CCN2CCC(c3cccc4c3OCO4)CC2)CC1 [Example 75, N-Trans-3-{4-[2-(4-Benzo[1,3]dioxol-4-yl-piperidin-1-yl)-ethyl]cyclohexyl}-1,1-dimethyl-urea] | 7.28 | 7.48 | 7.34 | –
O=C(N[C@H]1CC[C@H](CCN2CCC(c3cccc4c3OCO4)CC2)CC1)[C@H](O)C(F)(F)F [Example 38, Trans-(S)—N-{4-[2-(4-Benzo[1,3]dioxol-4-yl-piperidin-1-yl)-ethyl]-cyclohexyl}-3,3,3-trifluoro-2-hydroxy-propionamide] | 6.68 | 8.12 | – | 7.68
O=C(Cc1ccc2c(c1)OCO2)N[C@H]1CC[C@H](CCN2CCC(c3cccc4c3OCO4)CC2)CC1 [Example 59, 2-Benzo[1,3]dioxol-5-yl-trans-N-{4-[2-(4-benzo[1,3]dioxol-4-yl-piperidin-1-yl)-ethyl]-cyclohexyl}-acetamide] | 6.49 | 8.40 | 7.43 | –
CO[C@@H]1CC[C@@H](CC(=O)N[C@H]2CC[C@H](CCN3CCC(c4cccc5c4OCO5)CC3)CC2)C1 [Example 30, Trans-N-{4-[2-(4-Benzo[1,3]dioxol-4-yl-piperidin-1-yl)-ethyl]-cyclohexyl}-2-((1R,3R)-3-methoxy-cyclopentyl)-acetamide] | 6.48 | 8.28 | 7.56 | –
O=C(N[C@H]1CC[C@H](CCN2CCC(c3cccc4c3OCO4)CC2)CC1)C1CC1(F)F (stereo partly drawn) [Example 26, Trans-2,2-Difluoro-cyclopropanecarboxylic acid {4-[2-(4-benzo[1,3]dioxol-4-yl-piperidin-1-yl)-ethyl]-cyclohexyl}-amide] | 6.71 | 8.11 | 7.57 | –
CC(C)(O)CC(=O)N[C@H]1CC[C@H](CCN2CCC(c3cccc4c3OCO4)CC2)CC1 [Example 35, Trans-N-{4-[2-(4-Benzo[1,3]dioxol-4-yl-piperidin-1-yl)-ethyl]-cyclohexyl}-3-hydroxy-3-methyl-butyramide] | 6.55 | 8.23 | 7.58 | –
O=C(N[C@H]1CC[C@H](CCN2CCC(c3cccc4c3OCO4)CC2)CC1)c1ccc2c(c1)OCCO2 [Example 58, 2,3-Dihydro-benzo[1,4]dioxine-6-carboxylic acid-trans-N-{4-[2-(4-benzo[1,3]dioxol-4-yl-piperidin-1-yl)-ethyl]-cyclohexyl}-amide] | 6.46 | 8.43 | – | 7.70
CC1(C(=O)N[C@H]2CC[C@H](CCN3CCC(c4cccc5c4OCO5)CC3)CC2)COC1 [Example 62, 3-Methyl-oxetane-3-carboxylic acid-trans-N-{4-[2-(4-benzo[1,3]dioxol-4-yl-piperidin-1-yl)-ethyl]-cyclohexyl}-amide] | 6.65 | 7.41 | 7.66 | –
O=C(N[C@H]1CC[C@H](CCN2CCC(c3cccc4c3OCO4)CC2)CC1)C1CCOCC1 [Example 48, Tetrahydro-pyran-4-carboxylic acid-trans-{4-[2-(4-benzo[1,3]dioxol-4-yl-piperidin-1-yl)-ethyl]-cyclohexyl}-amide] | 6.74 | 7.86 | 8.02 | –
O=C(CC1CCCCO1)N[C@H]1CC[C@H](CCN2CCC(c3cccc4c3OCO4)CC2)CC1 (stereo partly drawn) [Example 22, Trans-N-{4-[2-(4-Benzo[1,3]dioxol-4-yl-piperidin-1-yl)-ethyl]-cyclohexyl}-2-(tetrahydro-pyran-2-yl)-acetamide] | 6.28 | 8.03 | – | 7.81
O=C(N[C@H]1CC[C@H](CCN2CCC(c3cccc4c3OCO4)CC2)CC1)c1ccc(F)cc1 [Example 37, Trans-N-{4-[2-(4-Benzo[1,3]dioxol-4-yl-piperidin-1-yl)-ethyl]-cyclohexyl}-4-fluoro-benzamide] | 6.63 | 8.31 | – | 7.88
COC(=O)N[C@H]1CC[C@H](CCN2CCC(c3cccc4c3OCO4)CC2)CC1 [Example 18, Trans-{4-[2-(4-Benzo[1,3]dioxol-4-yl-piperidin-1-yl)-ethyl]-cyclohexyl}-carbamic acid methyl ester] | 6.88 | 8.49 | – | 7.66
O=S(=O)(N[C@H]1CC[C@H](CCN2CCC(c3cccc4c3OCO4)CC2)CC1)c1ccccc1 [Example 70, Trans-N-{4-[2-(4-Benzo[1,3]dioxol-4-yl-piperidin-1-yl)-ethyl]cyclohexyl}-benzenesulfonamide] | 7.20 | 8.44 | – | 7.28
